Data published in the NIST ThermoML archive (doi:10.1016/j.fluid.2016.12.025).
Numbers after ± are expanded uncertainties.

How the values were obtained:
[1] = refractive index (Na D-line) (dimensionless); conditions: 298.2 K; 101.33 kPa; Liquid; Standard Abbe refractometry
[2] = 298.2 K; 101.33 kPa; Liquid; Vibrating tube method
[3] = refractive index (Na D-line) (dimensionless); xn = mol fraction of the nth substance listed; conditions: 298.2 K, 101 kPa, Liquid, Standard Abbe refractometry
[4] = xn = mol fraction of the nth substance listed; conditions: 298.2 K, 101 kPa, Liquid, Vibrating tube method

CC(C)CCO [3-methylbutan-1-ol]
refractive index [1]: 1.4061 ± 0.0004 | mass density [2]: 808.94 ± 0.16 kg/m3

CC(C)CCO [3-methylbutan-1-ol] + CCCCCCO
refractive index ([3]; x1 = 0.0496): 1.4154 ± 0.0007 | refractive index ([3]; x1 = 0.0997): 1.4149 ± 0.0007 | refractive index ([3]; x1 = 0.2005): 1.414 ± 0.0007 | refractive index ([3]; x1 = 0.3003): 1.4131 ± 0.0007 | refractive index ([3]; x1 = 0.3986): 1.4121 ± 0.0007 | refractive index ([3]; x1 = 0.4998): 1.4111 ± 0.0007 | refractive index ([3]; x1 = 0.6001): 1.4101 ± 0.0007 | refractive index ([3]; x1 = 0.7002): 1.4091 ± 0.0007 | refractive index ([3]; x1 = 0.8): 1.4081 ± 0.0007 | refractive index ([3]; x1 = 0.8998): 1.4069 ± 0.0007 | refractive index ([3]; x1 = 0.9504): 1.4064 ± 0.0007 | mass density ([4]; x1 = 0.0496): 815.43 ± 0.16 kg/m3 | mass density ([4]; x1 = 0.0997): 815.12 ± 0.16 kg/m3 | mass density ([4]; x1 = 0.2005): 814.49 ± 0.16 kg/m3 | mass density ([4]; x1 = 0.3003): 813.86 ± 0.16 kg/m3 | mass density ([4]; x1 = 0.3986): 813.22 ± 0.16 kg/m3 | mass density ([4]; x1 = 0.4998): 812.55 ± 0.16 kg/m3 | mass density ([4]; x1 = 0.6001): 811.87 ± 0.16 kg/m3 | mass density ([4]; x1 = 0.7002): 811.17 ± 0.16 kg/m3 | mass density ([4]; x1 = 0.8): 810.46 ± 0.16 kg/m3 | mass density ([4]; x1 = 0.8998): 809.73 ± 0.16 kg/m3 | mass density ([4]; x1 = 0.9504): 809.35 ± 0.16 kg/m3

CC(C)CCO [3-methylbutan-1-ol] + CCCCO
refractive index ([3]; x2 = 0.0498): 1.4056 ± 0.0007 | refractive index ([3]; x2 = 0.0999): 1.4053 ± 0.0007 | refractive index ([3]; x2 = 0.1999): 1.4045 ± 0.0007 | refractive index ([3]; x2 = 0.3): 1.4037 ± 0.0007 | refractive index ([3]; x2 = 0.4): 1.4029 ± 0.0007 | refractive index ([3]; x2 = 0.4999): 1.402 ± 0.0007 | refractive index ([3]; x2 = 0.6016): 1.4009 ± 0.0007 | refractive index ([3]; x2 = 0.7015): 1.3998 ± 0.0007 | refractive index ([3]; x2 = 0.7999): 1.3988 ± 0.0007 | refractive index ([3]; x2 = 0.9007): 1.3981 ± 0.0007 | refractive index ([3]; x2 = 0.9506): 1.3978 ± 0.0007 | mass density ([4]; x2 = 0.0498): 808.87 ± 0.16 kg/m3 | mass density ([4]; x2 = 0.0999): 808.78 ± 0.16 kg/m3 | mass density ([4]; x2 = 0.1999): 808.58 ± 0.16 kg/m3 | mass density ([4]; x2 = 0.3): 808.35 ± 0.16 kg/m3 | mass density ([4]; x2 = 0.4): 808.09 ± 0.16 kg/m3 | mass density ([4]; x2 = 0.4999): 807.81 ± 0.16 kg/m3 | mass density ([4]; x2 = 0.6016): 807.5 ± 0.16 kg/m3 | mass density ([4]; x2 = 0.7015): 807.16 ± 0.16 kg/m3 | mass density ([4]; x2 = 0.7999): 806.8 ± 0.16 kg/m3 | mass density ([4]; x2 = 0.9007): 806.41 ± 0.16 kg/m3 | mass density ([4]; x2 = 0.9506): 806.21 ± 0.16 kg/m3

CC(C)CCO [3-methylbutan-1-ol] + CCCCOC(C)=O
refractive index ([3]; x2 = 0.0497): 1.4049 ± 0.0007 | refractive index ([3]; x2 = 0.104): 1.4039 ± 0.0007 | refractive index ([3]; x2 = 0.1998): 1.4021 ± 0.0007 | refractive index ([3]; x2 = 0.2999): 1.4005 ± 0.0007 | refractive index ([3]; x2 = 0.3999): 1.399 ± 0.0007 | refractive index ([3]; x2 = 0.5001): 1.3976 ± 0.0007 | refractive index ([3]; x2 = 0.6006): 1.3962 ± 0.0007 | refractive index ([3]; x2 = 0.7): 1.395 ± 0.0007 | refractive index ([3]; x2 = 0.8003): 1.3939 ± 0.0007 | refractive index ([3]; x2 = 0.9005): 1.3928 ± 0.0007 | refractive index ([3]; x2 = 0.9466): 1.3923 ± 0.0007 | mass density ([4]; x2 = 0.0497): 812.53 ± 0.18 kg/m3 | mass density ([4]; x2 = 0.104): 816.52 ± 0.18 kg/m3 | mass density ([4]; x2 = 0.1998): 823.52 ± 0.17 kg/m3 | mass density ([4]; x2 = 0.2999): 830.68 ± 0.17 kg/m3 | mass density ([4]; x2 = 0.3999): 837.66 ± 0.17 kg/m3 | mass density ([4]; x2 = 0.5001): 844.46 ± 0.17 kg/m3 | mass density ([4]; x2 = 0.6006): 851.08 ± 0.17 kg/m3 | mass density ([4]; x2 = 0.7): 857.56 ± 0.16 kg/m3 | mass density ([4]; x2 = 0.8003): 863.93 ± 0.16 kg/m3 | mass density ([4]; x2 = 0.9005): 870.23 ± 0.16 kg/m3 | mass density ([4]; x2 = 0.9466): 873.08 ± 0.16 kg/m3

CCCCO [butan-1-ol]
refractive index [1]: 1.3973 ± 0.0004 | mass density [2]: 806.01 ± 0.16 kg/m3

CCCCOC(C)=O [butyl ethanoate]
refractive index [1]: 1.3918 ± 0.0004 | mass density [2]: 876.26 ± 0.14 kg/m3

CCCCOC(C)=O [butyl ethanoate] + CCCCCCO
refractive index ([3]; x1 = 0.0503): 1.4144 ± 0.0007 | refractive index ([3]; x1 = 0.1001): 1.4131 ± 0.0007 | refractive index ([3]; x1 = 0.2012): 1.4104 ± 0.0007 | refractive index ([3]; x1 = 0.3007): 1.4078 ± 0.0007 | refractive index ([3]; x1 = 0.4001): 1.4053 ± 0.0007 | refractive index ([3]; x1 = 0.4999): 1.4029 ± 0.0007 | refractive index ([3]; x1 = 0.6004): 1.4005 ± 0.0007 | refractive index ([3]; x1 = 0.6991): 1.3982 ± 0.0007 | refractive index ([3]; x1 = 0.8003): 1.396 ± 0.0007 | refractive index ([3]; x1 = 0.8953): 1.3939 ± 0.0007 | refractive index ([3]; x1 = 0.9452): 1.3929 ± 0.0007 | mass density ([4]; x1 = 0.0503): 818.79 ± 0.17 kg/m3 | mass density ([4]; x1 = 0.1001): 821.75 ± 0.17 kg/m3 | mass density ([4]; x1 = 0.2012): 827.7 ± 0.17 kg/m3 | mass density ([4]; x1 = 0.3007): 833.61 ± 0.17 kg/m3 | mass density ([4]; x1 = 0.4001): 839.54 ± 0.17 kg/m3 | mass density ([4]; x1 = 0.4999): 845.54 ± 0.17 kg/m3 | mass density ([4]; x1 = 0.6004): 851.63 ± 0.16 kg/m3 | mass density ([4]; x1 = 0.6991): 857.64 ± 0.16 kg/m3 | mass density ([4]; x1 = 0.8003): 863.85 ± 0.16 kg/m3 | mass density ([4]; x1 = 0.8953): 869.76 ± 0.16 kg/m3 | mass density ([4]; x1 = 0.9452): 872.86 ± 0.16 kg/m3

CCCCCCO [hexan-1-ol]
refractive index [1]: 1.4161 ± 0.0004 | mass density [2]: 815.88 ± 0.16 kg/m3

CCCCCCO [hexan-1-ol] + CCCCO
refractive index ([3]; x2 = 0.0543): 1.4148 ± 0.0007 | refractive index ([3]; x2 = 0.099): 1.4142 ± 0.0007 | refractive index ([3]; x2 = 0.2042): 1.4126 ± 0.0007 | refractive index ([3]; x2 = 0.2993): 1.4111 ± 0.0007 | refractive index ([3]; x2 = 0.4052): 1.4094 ± 0.0007 | refractive index ([3]; x2 = 0.4994): 1.4078 ± 0.0007 | refractive index ([3]; x2 = 0.5938): 1.406 ± 0.0007 | refractive index ([3]; x2 = 0.7005): 1.4038 ± 0.0007 | refractive index ([3]; x2 = 0.8004): 1.4017 ± 0.0007 | refractive index ([3]; x2 = 0.9003): 1.3997 ± 0.0007 | refractive index ([3]; x2 = 0.9499): 1.3985 ± 0.0007 | mass density ([4]; x2 = 0.0543): 815.53 ± 0.16 kg/m3 | mass density ([4]; x2 = 0.099): 815.22 ± 0.16 kg/m3 | mass density ([4]; x2 = 0.2042): 814.42 ± 0.16 kg/m3 | mass density ([4]; x2 = 0.2993): 813.64 ± 0.16 kg/m3 | mass density ([4]; x2 = 0.4052): 812.7 ± 0.16 kg/m3 | mass density ([4]; x2 = 0.4994): 811.8 ± 0.16 kg/m3 | mass density ([4]; x2 = 0.5938): 810.85 ± 0.16 kg/m3 | mass density ([4]; x2 = 0.7005): 809.72 ± 0.16 kg/m3 | mass density ([4]; x2 = 0.8004): 808.58 ± 0.16 kg/m3 | mass density ([4]; x2 = 0.9003): 807.35 ± 0.16 kg/m3 | mass density ([4]; x2 = 0.9499): 806.7 ± 0.16 kg/m3
